Tested on: Acinetobacter baumannii strains
Experiment: Antibiotic susceptibility test (CLSI disk diffusion test method, read per CLSI 2016); as to antibiotic susceptibility S/I/R: key: ‘S’ means susceptible; ‘I’ means intermediate; ‘R’ means resistant; as to susceptibility category (S/I/R): key: ‘S’ means susceptible; ‘I’ means intermediate; ‘R’ means resistant
Assay type: cell-based
Parameters: antibiotic susceptibility test value / susceptibility test value (number given before S/I/R) / antibiotic susceptibility value: unit not given here

colistin
antibiotic susceptibility value (host strain YMC16/01/R353): 0.5 | susceptibility category (S/I/R) (host strain YMC16/01/R353): S | susceptibility test value (number given before S/I/R) (host strain YMC16/01/R353): 0.5 | antibiotic susceptibility S/I/R (host strain YMC16/01/R380): S | antibiotic susceptibility value (host strain YMC16/01/R380): 0.5 | susceptibility category (S/I/R) (host strain YMC16/01/R380): S | susceptibility test value (number given before S/I/R) (host strain YMC16/01/R380): 0.5 | antibiotic susceptibility S/I/R (host strain YMC16/01/R397): S | antibiotic susceptibility value (host strain YMC16/01/R397): 0.5 | susceptibility category (S/I/R) (host strain YMC16/01/R397): S | susceptibility test value (number given before S/I/R) (host strain YMC16/01/R397): 0.5 | antibiotic susceptibility S/I/R (host strain YMC16/01/R405): S | antibiotic susceptibility value (host strain YMC16/01/R405): 0.5 | susceptibility category (S/I/R) (host strain YMC16/01/R405): S | susceptibility test value (number given before S/I/R) (host strain YMC16/01/R405): 0.5 | antibiotic susceptibility S/I/R (host strain YMC16/03/R4461): R | antibiotic susceptibility value (host strain YMC16/03/R4461): 16 | susceptibility category (S/I/R) (host strain YMC16/03/R4461): R | susceptibility test value (number given before S/I/R) (host strain YMC16/03/R4461): 16 | antibiotic susceptibility S/I/R (host strain YMC16/05/R2210): R | antibiotic susceptibility value (host strain YMC16/05/R2210): 16 | susceptibility category (S/I/R) (host strain YMC16/05/R2210): R | susceptibility test value (number given before S/I/R) (host strain YMC16/05/R2210): 16 | antibiotic susceptibility S/I/R (host strain YMC16/07/R2512): R | antibiotic susceptibility value (host strain YMC16/07/R2512): 16 | susceptibility category (S/I/R) (host strain YMC16/07/R2512): R | susceptibility test value (number given before S/I/R) (host strain YMC16/07/R2512): 16 | antibiotic susceptibility S/I/R (host strain YMC16/09/R2471): R | antibiotic susceptibility value (host strain YMC16/09/R2471): 16 | susceptibility category (S/I/R) (host strain YMC16/09/R2471): R | susceptibility test value (number given before S/I/R) (host strain YMC16/09/R2471): 16 | antibiotic susceptibility S/I/R (host strain YMC16/10/R2537): R | antibiotic susceptibility value (host strain YMC16/10/R2537): 16 | susceptibility category (S/I/R) (host strain YMC16/10/R2537): R | susceptibility test value (number given before S/I/R) (host strain YMC16/10/R2537): 16 | antibiotic susceptibility S/I/R (host strain YMC16/12/B11422): S | antibiotic susceptibility value (host strain YMC16/12/B11422): 0.5 | susceptibility category (S/I/R) (host strain YMC16/12/B11422): S | susceptibility test value (number given before S/I/R) (host strain YMC16/12/B11422): 0.5 | antibiotic susceptibility S/I/R (host strain YMC16/12/B11449): S | antibiotic susceptibility value (host strain YMC16/12/B11449): 0.5 | susceptibility category (S/I/R) (host strain YMC16/12/B11449): S | susceptibility test value (number given before S/I/R) (host strain YMC16/12/B11449): 0.5 | antibiotic susceptibility S/I/R (host strain YMC16/12/B13325): S | antibiotic susceptibility value (host strain YMC16/12/B13325): 0.5 | susceptibility category (S/I/R) (host strain YMC16/12/B13325): S | susceptibility test value (number given before S/I/R) (host strain YMC16/12/B13325): 0.5 | antibiotic susceptibility S/I/R (host strain YMC16/12/P503): R | antibiotic susceptibility value (host strain YMC16/12/P503): 16 | susceptibility category (S/I/R) (host strain YMC16/12/P503): R | susceptibility test value (number given before S/I/R) (host strain YMC16/12/P503): 16 | antibiotic susceptibility S/I/R (host strain YMC16/12/R4637): R | antibiotic susceptibility value (host strain YMC16/12/R4637): 16 | susceptibility category (S/I/R) (host strain YMC16/12/R4637): R | susceptibility test value (number given before S/I/R) (host strain YMC16/12/R4637): 16 | antibiotic susceptibility S/I/R (host strain YMC17/01/B8053): S | antibiotic susceptibility value (host strain YMC17/01/B8053): 0.5 | susceptibility category (S/I/R) (host strain YMC17/01/B8053): S | susceptibility test value (number given before S/I/R) (host strain YMC17/01/B8053): 0.5 | antibiotic susceptibility S/I/R (host strain YMC17/01/B10087): S | antibiotic susceptibility value (host strain YMC17/01/B10087): 0.5 | susceptibility category (S/I/R) (host strain YMC17/01/B10087): S | susceptibility test value (number given before S/I/R) (host strain YMC17/01/B10087): 0.5 | antibiotic susceptibility S/I/R (host strain YMC17/01/B12075): S | antibiotic susceptibility value (host strain YMC17/01/B12075): 22 | susceptibility category (S/I/R) (host strain YMC17/01/B12075): S | susceptibility test value (number given before S/I/R) (host strain YMC17/01/B12075): 22 | antibiotic susceptibility S/I/R (host strain YMC17/01/B13454): S | antibiotic susceptibility value (host strain YMC17/01/B13454): 0.5 | susceptibility category (S/I/R) (host strain YMC17/01/B13454): S | susceptibility test value (number given before S/I/R) (host strain YMC17/01/B13454): 0.5 | antibiotic susceptibility S/I/R (host strain YMC17/01/P518): S | antibiotic susceptibility value (host strain YMC17/01/P518): 0.5 | susceptibility category (S/I/R) (host strain YMC17/01/P518): S | susceptibility test value (number given before S/I/R) (host strain YMC17/01/P518): 0.5 | antibiotic susceptibility S/I/R (host strain YMC17/01/R2812): R | antibiotic susceptibility value (host strain YMC17/01/R2812): 16 | susceptibility category (S/I/R) (host strain YMC17/01/R2812): R | susceptibility test value (number given before S/I/R) (host strain YMC17/01/R2812): 16 | antibiotic susceptibility S/I/R (host strain YMC17/02/B14): S | antibiotic susceptibility value (host strain YMC17/02/B14): 0.5 | susceptibility category (S/I/R) (host strain YMC17/02/B14): S | susceptibility test value (number given before S/I/R) (host strain YMC17/02/B14): 0.5 | antibiotic susceptibility S/I/R (host strain YMC17/02/B87): S | antibiotic susceptibility value (host strain YMC17/02/B87): 0.5 | susceptibility category (S/I/R) (host strain YMC17/02/B87): S | susceptibility test value (number given before S/I/R) (host strain YMC17/02/B87): 0.5 | antibiotic susceptibility S/I/R (host strain YMC17/02/B721): S | antibiotic susceptibility value (host strain YMC17/02/B721): 0.5 | susceptibility category (S/I/R) (host strain YMC17/02/B721): S | susceptibility test value (number given before S/I/R) (host strain YMC17/02/B721): 0.5 | antibiotic susceptibility S/I/R (host strain YMC17/02/B4039): S | antibiotic susceptibility value (host strain YMC17/02/B4039): 0.5 | susceptibility category (S/I/R) (host strain YMC17/02/B4039): S | susceptibility test value (number given before S/I/R) (host strain YMC17/02/B4039): 0.5 | antibiotic susceptibility S/I/R (host strain YMC17/02/B4520): S | antibiotic susceptibility value (host strain YMC17/02/B4520): 0.5 | susceptibility category (S/I/R) (host strain YMC17/02/B4520): S | susceptibility test value (number given before S/I/R) (host strain YMC17/02/B4520): 0.5 | antibiotic susceptibility S/I/R (host strain YMC17/02/B4864): S | antibiotic susceptibility value (host strain YMC17/02/B4864): 0.5 | susceptibility category (S/I/R) (host strain YMC17/02/B4864): S | susceptibility test value (number given before S/I/R) (host strain YMC17/02/B4864): 0.5 | antibiotic susceptibility S/I/R (host strain YMC17/02/B8414): S | antibiotic susceptibility value (host strain YMC17/02/B8414): 0.5 | susceptibility category (S/I/R) (host strain YMC17/02/B8414): S | susceptibility test value (number given before S/I/R) (host strain YMC17/02/B8414): 0.5 | antibiotic susceptibility S/I/R (host strain YMC17/02/P523): S | antibiotic susceptibility value (host strain YMC17/02/P523): 0.5 | susceptibility category (S/I/R) (host strain YMC17/02/P523): S | susceptibility test value (number given before S/I/R) (host strain YMC17/02/P523): 0.5 | antibiotic susceptibility S/I/R (host strain YMC17/02/R541): R | antibiotic susceptibility value (host strain YMC17/02/R541): 16 | susceptibility category (S/I/R) (host strain YMC17/02/R541): R | susceptibility test value (number given before S/I/R) (host strain YMC17/02/R541): 16 | antibiotic susceptibility S/I/R (host strain YMC17/02/R2392): R | antibiotic susceptibility value (host strain YMC17/02/R2392): 16 | susceptibility category (S/I/R) (host strain YMC17/02/R2392): R | susceptibility test value (number given before S/I/R) (host strain YMC17/02/R2392): 4 | antibiotic susceptibility S/I/R (host strain YMC17/03/B4730): S | antibiotic susceptibility value (host strain YMC17/03/B4730): 0.5 | susceptibility category (S/I/R) (host strain YMC17/03/B4730): S | susceptibility test value (number given before S/I/R) (host strain YMC17/03/B4730): 0.5 | antibiotic susceptibility S/I/R (host strain YMC17/03/B5000): S | antibiotic susceptibility value (host strain YMC17/03/B5000): 0.5 | susceptibility category (S/I/R) (host strain YMC17/03/B5000): S | susceptibility test value (number given before S/I/R) (host strain YMC17/03/B5000): 0.5 | antibiotic susceptibility S/I/R (host strain YMC17/03/P971): R | antibiotic susceptibility value (host strain YMC17/03/P971): 16 | susceptibility category (S/I/R) (host strain YMC17/03/P971): R | susceptibility test value (number given before S/I/R) (host strain YMC17/03/P971): 16 | antibiotic susceptibility S/I/R (host strain YMC17/03/R348): R | antibiotic susceptibility value (host strain YMC17/03/R348): 16 | susceptibility category (S/I/R) (host strain YMC17/03/R348): R | susceptibility test value (number given before S/I/R) (host strain YMC17/03/R348): 4 | antibiotic susceptibility S/I/R (host strain YMC17/03/R585): R | antibiotic susceptibility value (host strain YMC17/03/R585): 16 | susceptibility category (S/I/R) (host strain YMC17/03/R585): R | susceptibility test value (number given before S/I/R) (host strain YMC17/03/R585): 16 | antibiotic susceptibility S/I/R (host strain YMC17/03/R1888): R | antibiotic susceptibility value (host strain YMC17/03/R1888): 16 | susceptibility category (S/I/R) (host strain YMC17/03/R1888): R | susceptibility test value (number given before S/I/R) (host strain YMC17/03/R1888): 16 | antibiotic susceptibility S/I/R (host strain YMC17/03/R3279): R | antibiotic susceptibility value (host strain YMC17/03/R3279): 16 | susceptibility category (S/I/R) (host strain YMC17/03/R3279): R | susceptibility test value (number given before S/I/R) (host strain YMC17/03/R3279): 16 | antibiotic susceptibility S/I/R (host strain YMC17/03/R4077): S | antibiotic susceptibility value (host strain YMC17/03/R4077): 0.5 | susceptibility category (S/I/R) (host strain YMC17/03/R4077): S | susceptibility test value (number given before S/I/R) (host strain YMC17/03/R4077): 0.5 | antibiotic susceptibility S/I/R (host strain YMC17/03/R4607): S | antibiotic susceptibility value (host strain YMC17/03/R4607): 0.5 | susceptibility category (S/I/R) (host strain YMC17/03/R4607): S | susceptibility test value (number given before S/I/R) (host strain YMC17/03/R4607): 0.5 | antibiotic susceptibility S/I/R (host strain YMC17/04/R488): R | antibiotic susceptibility value (host strain YMC17/04/R488): 8 | susceptibility category (S/I/R) (host strain YMC17/04/R488): R | susceptibility test value (number given before S/I/R) (host strain YMC17/04/R488): 8 | antibiotic susceptibility S/I/R (host strain YMC17/04/R640): R | antibiotic susceptibility value (host strain YMC17/04/R640): 8 | susceptibility category (S/I/R) (host strain YMC17/04/R640): R | susceptibility test value (number given before S/I/R) (host strain YMC17/04/R640): 8 | antibiotic susceptibility S/I/R (host strain YMC/17/05/R1095): R | antibiotic susceptibility value (host strain YMC/17/05/R1095): 16 | susceptibility category (S/I/R) (host strain YMC/17/05/R1095): R | susceptibility test value (number given before S/I/R) (host strain YMC/17/05/R1095): 16
